Source: patent US20040014768A1, “Chromenone derivatives and their use for treating diseases in conjunction with 5-hta1receptors and/or dopamine d2 receptors” (priority 2000, published 2004)

| melting point [°C] | Compound |
| --- | --- |
| 225 to 228 | COc1cc2oc(=O)c(C)c(C)c2cc1OCCCN1CCN(c2cccc3cccnc23)CC1 [Example 5, 7-methoxy-3,4-dimethyl-6-[3-(4-quinolin-8-ylpiperazin-1-yl)propoxy]-chromen-2-one] |
| 231 to 237 | COc1cc2oc(=O)c(C)c(C)c2cc1OCCN1CCN(c2cccc3[nH]ccc23)CC1.Cl.Cl |
| 201 to 202 | COc1cc2oc(=O)c(C)c(C)c2cc1OCCN1CCN(c2cccc3[nH]ccc23)CC1 [Example 3, 6-{2-[4-(1H-indol-4-yl)piperazin-1-yl]ethoxy}-7-methoxy-3,4-dimethylchromen-2-one] |
| 164 to 165 | COc1cc2oc(=O)c(C)c(C)c2cc1OCCN1CCN(c2cccc3cccnc23)CC1 [Example 4, 7-methoxy-3,4-dimethyl-6-[2-(4-quinolin-8-ylpiperazin-1-yl)ethoxy]chromen-2-one] |
| 193 to 195 | COc1cc2oc(=O)c(C)c(C)c2cc1OCCCN1CCN(c2cccc3[nH]ccc23)CC1 [Example 5, 6-{3-[4-(1H-indol-4-yl)piperazin-1-yl]propoxy}-7-methoxy-3,4-dimethyl-chromen-2-one] |
| 168 to 170 | COc1cc2oc(=O)c(C)c(C)c2cc1OCCN1CCN(c2cccc3ccc(C)nc23)CC1 [Example 4, 7-methoxy-3,4-dimethyl-6-{2-[4-(2-methylquinolin-8-yl)piperazin-1-yl]-ethoxy}chromen-2-one] |
